Measurements published in patent publication EP4635949A1 (Jiangsu NHWA Pharmaceutical Co., Ltd, priority 2022, dated 2024).
Where two headings read alike, the source gives them in different places. Marks after values point to notes of the source that are not given here.

Key:
SD rats = experiment: Autonomous activity of rats; assay type: in vivo
Protocol: The animals were placed in the test box immediately after administration, and the activity distance of the animals within 60 minutes was recorded and analyzed using Top Scan Version 3.0. […] The experimental data were expressed by mean ± standard deviation (Mean ± SD), and SPSS 21.0 statistical software was used for one-way analysis of variance. The Dunnett's test was used for pairwise comparison, and p<0.05 was represented as *.

OX2 receptor = biological target: T1, OX2 receptor (Homo sapiens, UniProt O43614); experiment: Orexin target function test (Cisbio HTRF IP-one), CHO-K1-OX2 cells, antagonism of EC80 Orexin 2 receptor agonist; assay type: cell-based
T1 construct: host or cells: CHO-K1
T1 sequence (O43614 1-444): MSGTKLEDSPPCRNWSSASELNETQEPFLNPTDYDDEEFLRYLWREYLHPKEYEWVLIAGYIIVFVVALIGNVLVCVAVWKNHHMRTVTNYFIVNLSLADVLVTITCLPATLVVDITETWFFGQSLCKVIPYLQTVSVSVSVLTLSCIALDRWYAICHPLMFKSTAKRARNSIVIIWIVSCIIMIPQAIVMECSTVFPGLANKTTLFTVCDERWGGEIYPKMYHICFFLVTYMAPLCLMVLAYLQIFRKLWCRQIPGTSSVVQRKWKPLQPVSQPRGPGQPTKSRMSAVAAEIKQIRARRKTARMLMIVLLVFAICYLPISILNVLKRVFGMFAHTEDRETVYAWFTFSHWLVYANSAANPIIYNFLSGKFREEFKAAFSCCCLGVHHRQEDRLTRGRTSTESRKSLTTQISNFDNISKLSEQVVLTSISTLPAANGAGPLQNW
Protocol: (§1) Using Cisbio HTRF IP-one kit to detect the changes in IP-one concentration of orexin receptor (OX1/OX2) signaling pathway by microplate reader, and calculating the IC50 value of the compound to evaluate the antagonistic effect of the compound on OX1 and OX2 receptors.
(§2) The cells were centrifuged at 1000 rpm for 5 minutes and the supernatant was discarded. 3 mL of PBS was added, and gently blown with a pipette to mix. After centrifugation at 1000 rpm for 5 minutes again, the supernatant was discarded. […] Based on the antagonistic effect values of the compound samples at different concentrations, the GraphPad Prism software was used to fit the orexin receptor antagonism curve of the compound samples and calculate the IC50.

OX1 receptor = biological target: T2, OX1 receptor (Homo sapiens, UniProt O43613); experiment: Orexin target function test (Cisbio HTRF IP-one), CHO-K1-OX1 cells, antagonism of EC80 Orexin A; assay type: cell-based
T2 construct: host or cells: CHO-K1
T2 sequence (O43613 1-425): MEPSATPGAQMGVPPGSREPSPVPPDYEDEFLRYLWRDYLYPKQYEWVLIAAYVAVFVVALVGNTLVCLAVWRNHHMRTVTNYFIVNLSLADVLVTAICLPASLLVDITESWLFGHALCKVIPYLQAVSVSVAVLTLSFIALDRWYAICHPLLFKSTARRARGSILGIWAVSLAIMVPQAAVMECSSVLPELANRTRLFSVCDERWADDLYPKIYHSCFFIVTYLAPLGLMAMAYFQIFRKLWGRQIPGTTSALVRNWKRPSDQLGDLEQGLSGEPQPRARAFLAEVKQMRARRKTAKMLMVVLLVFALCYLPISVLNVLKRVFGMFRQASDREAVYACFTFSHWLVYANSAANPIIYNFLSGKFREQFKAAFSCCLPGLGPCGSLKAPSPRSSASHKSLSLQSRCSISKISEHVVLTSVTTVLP
Protocol: as §1, §2

in vivo = details: male, SD, rat, plasma
[1] = male SD rats, dose 10 mg/kg, versus blank vehicle group
[2] = male SD rats, dose 10 mg/kg, within 60 minutes, Mean ± SD
[3] = male SD rats, dose 30 mg/kg, versus blank vehicle group
[4] = male SD rats, dose 30 mg/kg, within 60 minutes, Mean ± SD
[5] = male SD rats, dose 50 mg/kg, versus blank vehicle group
[6] = male SD rats, dose 50 mg/kg, within 60 minutes, Mean ± SD
[7] = CHO-K1-OX2 cells, IP-one, read-out: hOX2R IC50
[8] = CHO-K1-OX1 cells, IP-one, read-out: hOXIR IC50
[9] = ratio of OX1R IC50 to OX2R IC50

SMILES	IC50 (OX2 receptor; [7])	IC50 (OX1 receptor; [8])	AUC(0-t) (in vivo; iv, 1 mg/kg)	Cmax (in vivo; iv, 1 mg/kg)	AUC(0-t) (in vivo; po, 30 mg/kg)	Cmax (in vivo; po, 30 mg/kg)	bioavailability (in vivo; po, 30 mg/kg)	Selectivity (OX2 receptor; [9])	further results
Cc1nc(C2=CC3CN(C(=O)c4c(F)cccc4-n4nccn4)CC3C2)nc(C)c1F (stereo not shown) [Compound 1, (5-(5-fluoro-4,6-dimethylpyrimidin-2-yl)-3,3a,4,6a-tetrahydrocyclopenta[c]pyrrol-2(1H)-yl)(2-fluoro-6-(2H-1,2,3-triazol-2-yl)phenyl)methanone]	14 nM	1130 nM							Inhibition rate(%) (SD rats; [1]): 16.33%; Activity distance (mm) (SD rats; [2]): 59434.65±1478.32 mm; Inhibition rate(%) (SD rats; [3]): 23.37* %; Activity distance (mm) (SD rats; [4]): 54433.35±3341.26 mm; Inhibition rate(%) (SD rats; [5]): 59.81* %; Activity distance (mm) (SD rats; [6]): 28548.56±1238.05 mm; Selectivity (OX2 receptor): 80
Cc1nc(C2=CC3CN(C(=O)c4ccc(F)cc4-n4nccn4)CC3C2)nc(C)c1F (stereo not shown) [Compound 2, (4-fluoro-2-(2H-1,2,3-triazol-2-yl)phenyl)(5-(5-fluoro-4,6-dimethylpyrimidin-2-yl)-3,3a,4,6a-tetrahydrocyclopenta[c]pyrrol-2(1H)-yl)methanone]			869 ng·h/mL	1880 ng/mL	15000 ng·h/mL	7480 ng/mL	57.6%		Activity distance (mm) (SD rats; rat, in vivo, 10 mg/kg): 52097.9±18671.68 mm; Inhibition rate(%) (SD rats; rat, in vivo, 10 mg/kg): 26.66* %; Activity distance (mm) (SD rats; rat, in vivo, 30 mg/kg): 46276.83±15906.44 mm; Inhibition rate(%) (SD rats; rat, in vivo, 30 mg/kg): 34.85 * %; Activity distance (mm) (SD rats; rat, in vivo, 50 mg/kg): 37866.51±7149.48 mm; Inhibition rate(%) (SD rats; rat, in vivo, 50 mg/kg): 46.69* %; IC50 (OX2 receptor): 18 nM; Selectivity (OX2 receptor): 128; IC50 (OX1 receptor): 2300 nM
COc1nc(C2=CC3CN(C(=O)c4c(F)cccc4-n4nccn4)CC3C2)nc(C)c1F (stereo not shown) [Compound 8, (5-(5-fluoro-4-methoxy-6-methylpyrimidin-2-yl)-3,3a,4,6a-tetrahydrocyclopenta[c]pyrrol-2(1H)-yl)(2-fluoro-6-(2H-1,2,3-triazol-2-yl)phenyl)methanone]	12 nM	1240 nM	808 ng·h/mL	3220 ng/mL	16900 ng·h/mL	13800 ng/mL	69.8%	100	
Cc1nc(C2=CC3CN(C(=O)c4c(F)cccc4-n4nccn4)CC3C2)nc2c1COC2 (stereo not shown) [Compound 20, (2-fluoro-6-(2H-1,2,3-triazol-2-yl)phenyl)(5-(4-methyl-5,7-dihydrofuro[3,4-d]pyrimidin-2-yl)-3,3a,4,6a-tetrahydrocyclopenta[c]pyrrol-2(1H)-yl)methanone]	24.5 nM	3170 nM						129	Inhibition rate(%) (SD rats; [1]): 14.67%; Activity distance (mm) (SD rats; [2]): 60610.23±1657.26 mm; Inhibition rate(%) (SD rats; [3]): 24.24* %; Activity distance (mm) (SD rats; [4]): 53815.36±1401.21 mm; Inhibition rate(%) (SD rats; [5]): 31.17* %; Activity distance (mm) (SD rats; [6]): 48892.70±2164.16 mm
CCOc1ccc(C(=O)N2CC3C=C(c4nc(C)cnc4OC)CC3C2)c(-n2nccn2)c1 (stereo not shown) [Compound 45, [4-ethoxy-2-(2H-1,2,3-triazol-2-yl)phenyl][5-(3-methoxy-6-methylpyrazin-2-yl)-3,3a,4,6a-tetrahydrocyclopenta[c]pyrrol-2(1H)-yl]methanone]	25 nM	3000 nM	1560 ng·h/mL	2520 ng/mL	36000 ng·h/mL	19600 ng/mL	77.1%	125	
COc1ccc(C(=O)N2CC3C=C(c4nc(C)cnc4OC)CC3C2)c(-c2ncccn2)c1 (stereo not shown) [Compound 48, [4-methoxy-2-(pyrimidin-2-yl)phenyl][5-(3-methoxy-6-methylpyrazin-2-yl)-3,3a,4,6a-tetrahydrocyclopenta[c]pyrrol-2(1H)-yl]methanone]	21 nM	3250 nM	886 ng·h/mL	3310 ng/mL	10100 ng·h/mL	9410 ng/mL	37.8%	154	
[2H]C([2H])([2H])c1cnc(OC)c(C2=CC3CN(C(=O)c4ccc(OC)cc4-n4nccn4)CC3C2)n1 (stereo not shown) [Compound 56, [4-methoxy-2-(2H-1,2,3-triazol-2-yl)phenyl][5-[3-methoxy-6-(methyl-d3)pyrazin-2-yl]-3,3a,4,6a-tetrahydrocyclopentyl[c]pyrrol-2(1H)-yl]methanone]	16 nM	2300 nM						144	
[2H]C([2H])([2H])Oc1ccc(C(=O)N2CC3C=C(c4nc(C)cnc4OC)CC3C2)c(-n2nccn2)c1 (stereo not shown) [Compound 57, [5-(3-methoxy-6-methylpyrazin-2-yl)-3,3a,4,6a-tetrahydrocyclopenta[c]pyrrol-2(1H)-yl][4-(methoxy-d3)-2-(2H-1,2,3-triazol-2-yl)phenyl]methanone]	18 nM	3160 nM						176	
[2H]C([2H])([2H])Oc1ncc(C)nc1C1=CC2CN(C(=O)c3ccc(OC)cc3-n3nccn3)CC2C1 (stereo not shown) [Compound 58, [4-methoxy-2-(2H-1,2,3-triazol-2-yl)phenyl][5-[3-(methoxy-d3)-6-methylpyrazin-2-yl]-3,3a,4,6a-tetrahydrocyclopentyl[c]pyrrol-2(1H)-yl]methanone]	24 nM	1980 nM						83	
COc1ccc(C(=O)N2CC3C=C(c4nc(CF)cnc4OC)CC3C2)c(-n2nccn2)c1 (stereo not shown) [Compound 59, [5-[6-(fluoromethyl)-3-methoxypyrazin-2-yl]-3,3a,4,6a-tetrahydrocyclopentyl[c]pyrrol-2(1H)-yl][4-methoxy-2-(2H-1,2,3-triazol-2-yl)phenyl]methanone]	17 nM	1800 nM						106	
COc1ncc(C)nc1C1=CC2CN(C(=O)c3ccc(F)cc3-n3cccn3)CC2C1 (stereo not shown) [Compound 61, [4-fluoro-2-(1H-pyrazol-1-yl)phenyl][5-(3-methoxy-6-methylpyrazin-2-yl)-3,3a,4,6a-tetrahydrocyclopenta[c]pyrrol-2(1H)-yl]methanone]	14 nM	2100 nM	737 ng·h/mL	1920 ng/mL	5400 ng·h/mL	5690 ng/mL	24.4%		Selectivity (OX2 receptor): 150
Cc1cnc(C#N)c(C2=CC3CN(C(=O)c4ccc(F)cc4-n4nccn4)CC3C2)n1 (stereo not shown) [Compound 62, 3-[2-[4-fluoro-2-(2H-1,2,3-triazol-2-yl)benzoyl]-1,2,3,3a,4,6a-hexahydrocyclopenta[c]pyrrol-5-yl]-5-methylpyrazine-2-carbonitrile]	18 nM	1650 nM						92	
